Reference: patent US11382946B2, “Multi-functional peptides and use thereof” (NOVACELL TECHNOLOGY INC., priority 2019, dated 2022)
Non-standard residues stand in square brackets, D forms with d. Residues, ends and D or L forms follow the SMILES beside them. *: point of attachment. 2Nal = N[C@@H](Cc1ccc2ccccc2c1)C(=O)O; Nle = CCCC[C@H](N)C(=O)O; Octanoyl = CCCCCCCC(=O)*

Experiments:
FPR2 = biological target: T1, FPR2 (Homo sapiens, UniProt P25090); test: FPR2 activation by intracellular calcium ion increase (Fura-2/AM) in FPR2-RBL cells; format: cell-based; conditions: RBL cells overexpressing FPR2
T1 construct: expressed in transfected cells; host or cells: RBL cells overexpressing FPR2 (FPR2-RBL)
T1 sequence (P25090 1-351): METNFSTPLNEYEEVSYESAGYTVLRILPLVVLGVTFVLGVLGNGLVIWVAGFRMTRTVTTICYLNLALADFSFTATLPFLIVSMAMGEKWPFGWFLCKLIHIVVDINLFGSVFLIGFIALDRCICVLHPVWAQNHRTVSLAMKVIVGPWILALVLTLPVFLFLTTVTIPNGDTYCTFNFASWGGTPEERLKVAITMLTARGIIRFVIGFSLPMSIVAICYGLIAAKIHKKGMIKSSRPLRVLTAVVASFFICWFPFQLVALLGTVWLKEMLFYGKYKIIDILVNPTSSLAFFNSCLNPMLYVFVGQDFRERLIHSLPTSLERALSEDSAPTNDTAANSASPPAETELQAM
Procedure: The present inventors observed a change in calcium ion permeability of the candidate peptides according to an embodiment of the present invention in order to determine whether they can activate the immunomodulatory function in a body or not. Particularly, intracellular concentration of calcium ions was measured to confirm that the peptide activates FPR2. RBL cells that do neither express FPR1 nor FPR2, RBL cells overexpressed FPR1 (FPR1-RBL) and RBL cells that overexpressed FPR2 (FPR2-RBL) were used and Fura-2/AM which is a fluorophore having high binding affinity to calcium in order to measure intracellular calcium ion level sensitively. For this purpose, cells were cultured in RPMI medium supplemented with 10% fetal bovine serum and harvested by centrifugation in log phase (mid-log phase, 1-3×10^7 cells/ml), and then washed several times with RPMI medium not supplemented with fetal bovine serum, and then the cells were resuspended in RPMI medium to 1×10^7 cells/ml. Subsequently, a final 3 μM concentration of Fura-2/AM was added and the cells were incubated for 45 minutes in a 37° C., 5% CO2 incubator. After the appropriated time, the cells are harvested, washed again with RPMI medium, and then suspended in the appropriate amount of RPMI medium supplemented with 250 μM of sulfinpyrazone, in order to prevent loss of Fura-2 entering the cells. About 2×10^6 cells were taken each time, harvested by rapid centrifugation, and resuspended in 1 ml of a Locke solution without addition of calcium ions and EGTA added, and the ratio of absorbance at two wavelengths of 340 nm and 380 nm on a spectrophotometer were monitored by treating the peptides according to an embodiment of the present invention at different concentrations (1 μM, 0.1 μM, and 0.01 μM) at intervals of about 1 minute, and then the difference in absorbance at two wavelengths was investigated. It was converted to the concentration of free calcium ions into cells according to the method of Grynkiewicz.

P. aeruginosa = format: cell-based, Pseudomonas aeruginosa; conditions: 18 h
Procedure: (§1) The present inventors evaluated […] in order to select peptides showing excellent performance among various peptides synthesized in the Example 1. Particularly, in order to measure the antimicrobial activity of the peptide, after preparing Gram-positive bacteria Staphylococcus aureus (S. aureus) and Gram-negative bacteria Pseudomonas aeruginosa (P. aeruginosa), the bacteria were plated on agar plate medium by fourth streaking and cultured overnight in a 36° C. incubator. The next day, the strain colonies produced on the agar plate medium were inoculated into 3 ml nutrient medium and cultured overnight in a stirring incubator at 36° C. and 220 rpm. The next day, the bacteria were diluted to measure absorbance at 600 nm, adjusted to OD600=0.5, and diluted in a 1:100 ratio in nutrient medium. Then, the peptides prepared in the above Examples were serially diluted in concentrations of 0, 1.25, 2.5, 5, 10, and 20 μM in a nutrient medium to prepare 1 ml each, and then inoculated with 1 ml of the diluted bacteria. Subsequently, the mixture was stirred under conditions of 36° C. and 220 rpm, and incubated for 18 hours, and absorbance at 600 nm was measured.
(§2) As a result, 20 peptides showing high antibacterial activity against P. aeruginosa and S. aureus) were selected (FIGS. 2 and 3).

S. aureus = format: cell-based, Staphylococcus aureus; conditions: 18 h
Procedure: as §1, §2

Structure (SMILES): CSCC[C@@H](NC(=O)[C@H](Cc1c[nH]c2ccccc12)NC(=O)[C@H](Cc1ccc2ccccc2c1)NC(=O)[C@H](Cc1c[nH]c2ccccc12)NC(=O)[C@H](CCCNC(=N)N)NC(=O)[C@H](Cc1c[nH]c2ccccc12)NC(=O)[C@@H](N)CCCNC(=N)N)C(N)=O [Peptide V18_0, RWRWZWm-NH2] (H-RWRW[2Nal]W[dM]-NH2)
- EC50 (FPR2): 0.01 µM
- Antimicrobial activity (IC50, μg/ml) P. aeruginosa (P. aeruginosa): 21.1 µg/mL
- Antimicrobial activity (IC50, μg/ml) S. aureus (S. aureus): 6.8 µg/mL

Structure (SMILES): N=C(N)NCCC[C@H](NC(=O)[C@H](Cc1c[nH]c2ccccc12)NC(=O)[C@@H](N)CCCNC(=N)N)C(=O)N[C@@H](Cc1c[nH]c2ccccc12)C(=O)N[C@@H](Cc1ccc2ccccc2c1)C(=O)N[C@@H](Cc1c[nH]c2ccccc12)C(N)=O [Peptide V16_0, RWRWZW-NH2] (H-RWRW[2Nal]W-NH2)
- Antimicrobial activity (IC50, μg/ml) P. aeruginosa (P. aeruginosa): 4.3 µg/mL
- Antimicrobial activity (IC50, μg/ml) S. aureus (S. aureus): 30.2 µg/mL

Structure (SMILES): CCCCCCCC(=O)N[C@@H](CCCNC(=N)N)C(=O)N[C@@H](Cc1c[nH]c2ccccc12)C(=O)N[C@@H](CCCNC(=N)N)C(=O)N[C@@H](Cc1c[nH]c2ccccc12)C(=O)N[C@@H](CCCNC(=N)N)C(=O)N[C@@H](Cc1ccc(O)cc1)C(=O)N[C@@H](CCSC)C(=O)N[C@H](C(=O)N[C@H](CCSC)C(N)=O)C(C)C [Peptide V8, Oct-RWRWRYMVm-NH2] (Octanoyl-RWRWRYMV[dM]-NH2)
- EC50 (FPR2): 0.0064 µM
- Antimicrobial activity (IC50, μg/ml) P. aeruginosa (P. aeruginosa): 24.4 µg/mL
- Antimicrobial activity (IC50, μg/ml) S. aureus (S. aureus): 13.0 µg/mL

Structure (SMILES): CSCC[C@@H](NC(=O)[C@H](Cc1c[nH]c2ccccc12)NC(=O)[C@H](CCCNC(=N)N)NC(=O)[C@H](Cc1c[nH]c2ccccc12)NC(=O)[C@H](Cc1c[nH]c2ccccc12)NC(=O)[C@H](CCCNC(=N)N)NC(=O)[C@H](CCCNC(=N)N)NC(C)=O)C(N)=O [Peptide V24_Ac, Ac-RRWWRWm-NH2] (Ac-RRWWRW[dM]-NH2)
- EC50 (FPR2): 0.0586 µM
- Antimicrobial activity (IC50, μg/ml) P. aeruginosa (P. aeruginosa): 47.8 µg/mL
- Antimicrobial activity (IC50, μg/ml) S. aureus (S. aureus): 24.0 µg/mL

Structure (SMILES): CCCCCCCC(=O)N[C@@H](CCCNC(=N)N)C(=O)N[C@@H](Cc1c[nH]c2ccccc12)C(=O)N[C@@H](CCCNC(=N)N)C(=O)N[C@@H](Cc1c[nH]c2ccccc12)C(=O)N[C@@H](Cc1ccc2ccccc2c1)C(=O)N[C@@H](Cc1c[nH]c2ccccc12)C(=O)N[C@H](CCSC)C(N)=O [Peptide V18, Oct-RWRWZWm-NH2] (Octanoyl-RWRW[2Nal]W[dM]-NH2)
- EC50 (FPR2): 0.0628 µM
- Antimicrobial activity (IC50, μg/ml) P. aeruginosa (P. aeruginosa): 16.2 µg/mL
- Antimicrobial activity (IC50, μg/ml) S. aureus (S. aureus): 2.3 µg/mL

Structure (SMILES): CCCCCCCC(=O)N[C@@H](CCCCN)C(=O)N[C@@H](Cc1ccccc1)C(=O)N[C@@H](CCCCN)C(=O)N[C@@H](Cc1c[nH]c2ccccc12)C(=O)N[C@@H](CCCC)C(=O)N[C@@H](Cc1ccc(O)cc1)C(=O)N[C@H](CCSC)C(N)=O [Peptide V3, Oct-KFKW-Nle-Ym-NH2] (Octanoyl-KFKW[Nle]Y[dM]-NH2)
- EC50 (FPR2): 0.107 µM
- Antimicrobial activity (IC50, μg/ml) S. aureus (S. aureus): 15.2 µg/mL

Structure (SMILES): CCCCCCCC(=O)N[C@@H](CCCNC(=N)N)C(=O)N[C@@H](Cc1c[nH]c2ccccc12)C(=O)N[C@@H](CCCNC(=N)N)C(=O)N[C@@H](Cc1c[nH]c2ccccc12)C(=O)N[C@@H](CCCNC(=N)N)C(=O)N[C@@H](Cc1c[nH]c2ccccc12)C(=O)N[C@@H](CCSC)C(=O)N[C@H](C(=O)N[C@H](CCSC)C(N)=O)C(C)C [Peptide V9, Oct-RWRWRWMVm-NH2] (Octanoyl-RWRWRWMV[dM]-NH2)
- EC50 (FPR2): 0.0047 µM
- Antimicrobial activity (IC50, μg/ml) S. aureus (S. aureus): 12.7 µg/mL

Structure (SMILES): CCCCCCCC(=O)N[C@@H](CCCNC(=N)N)C(=O)N[C@@H](Cc1c[nH]c2ccccc12)C(=O)N[C@@H](CCCNC(=N)N)C(=O)N[C@@H](Cc1c[nH]c2ccccc12)C(=O)N[C@@H](CCCC)C(=O)N[C@@H](Cc1ccc(O)cc1)C(=O)N[C@H](CCSC)C(N)=O [Peptide V5, Oct-RWRW-Nle-Ym-NH2] (Octanoyl-RWRW[Nle]Y[dM]-NH2)
- EC50 (FPR2): 0.0415 µM
- Antimicrobial activity (IC50, μg/ml) P. aeruginosa (P. aeruginosa): >50 µg/mL
- Antimicrobial activity (IC50, μg/ml) S. aureus (S. aureus): 2.0 µg/mL

Structure (SMILES): CCCCCCCC(=O)N[C@@H](CCCCN)C(=O)N[C@@H](Cc1c[nH]c2ccccc12)C(=O)N[C@@H](CCCCN)C(=O)N[C@@H](Cc1c[nH]c2ccccc12)C(=O)N[C@@H](CCCC)C(=O)N[C@@H](Cc1ccc(O)cc1)C(=O)N[C@H](CCSC)C(N)=O [Peptide V4, Oct-KWKW-Nle-Ym-NH2] (Octanoyl-KWKW[Nle]Y[dM]-NH2)
- EC50 (FPR2): 0.064 µM
- Antimicrobial activity (IC50, μg/ml) S. aureus (S. aureus): 5.1 µg/mL

Structure (SMILES): CCCCCCCC(=O)N[C@@H](CCCNC(=N)N)C(=O)N[C@@H](Cc1c[nH]c2ccccc12)C(=O)N[C@@H](CCCNC(=N)N)C(=O)N[C@@H](Cc1c[nH]c2ccccc12)C(=O)N[C@@H](Cc1ccc2ccccc2c1)C(=O)N[C@@H](Cc1c[nH]c2ccccc12)C(N)=O [Peptide V16, Oct-RWRWZW-NH2] (Octanoyl-RWRW[2Nal]W-NH2)
- Antimicrobial activity (IC50, μg/ml) P. aeruginosa (P. aeruginosa): 7.3 µg/mL
- Antimicrobial activity (IC50, μg/ml) S. aureus (S. aureus): 2.7 µg/mL

Structure (SMILES): CCCC[C@H](NC(=O)[C@H](Cc1c[nH]c2ccccc12)NC(=O)[C@H](Cc1c[nH]c2ccccc12)NC(=O)[C@H](CCCNC(=N)N)NC(=O)[C@H](Cc1ccc2ccccc2c1)NC(C)=O)C(=O)N[C@@H](Cc1c[nH]c2ccccc12)C(=O)N[C@H](CCSC)C(N)=O [Peptide V20_Ac, Ac-ZRWW-Nle-Wm-NH2] (Ac-[2Nal]RWW[Nle]W[dM]-NH2)
- EC50 (FPR2): 0.0453 µM
- Antimicrobial activity (IC50, μg/ml) P. aeruginosa (P. aeruginosa): >50 µg/mL
- Antimicrobial activity (IC50, μg/ml) S. aureus (S. aureus): >50 µg/mL

Structure (SMILES): CSCC[C@@H](NC(=O)[C@H](Cc1c[nH]c2ccccc12)NC(=O)[C@H](CCCNC(=N)N)NC(=O)[C@H](Cc1c[nH]c2ccccc12)NC(=O)[C@H](Cc1c[nH]c2ccccc12)NC(=O)[C@@H](NC(=O)[C@H](CCCNC(=N)N)NC(=O)[C@H](Cc1c[nH]c2ccccc12)NC(=O)[C@H](Cc1c[nH]c2ccccc12)NC(=O)[C@H](CCCNC(=N)N)NC(=O)[C@H](Cc1ccc2ccccc2c1)NC(C)=O)C(C)C)C(N)=O [Peptide V22_Ac, Ac-ZRWWRVWWRWm-NH2] (Ac-[2Nal]RWWRVWWRW[dM]-NH2)
- EC50 (FPR2): 0.0162 µM
- Antimicrobial activity (IC50, μg/ml) P. aeruginosa (P. aeruginosa): >50 µg/mL
- Antimicrobial activity (IC50, μg/ml) S. aureus (S. aureus): 13.6 µg/mL

Structure (SMILES): CSCC[C@@H](NC(=O)[C@H](Cc1c[nH]c2ccccc12)NC(=O)[C@H](CCCNC(=N)N)NC(=O)[C@H](Cc1c[nH]c2ccccc12)NC(=O)[C@H](Cc1c[nH]c2ccccc12)NC(=O)[C@H](CCCNC(=N)N)NC(=O)[C@H](Cc1ccc2ccccc2c1)NC(C)=O)C(N)=O [Peptide V19_Ac, Ac-ZRWWRWm-NH2] (Ac-[2Nal]RWWRW[dM]-NH2)
- EC50 (FPR2): 0.0694 µM
- Antimicrobial activity (IC50, μg/ml) P. aeruginosa (P. aeruginosa): >50 µg/mL
- Antimicrobial activity (IC50, μg/ml) S. aureus (S. aureus): 5.4 µg/mL

Structure (SMILES): CCCCCCCC(=O)N[C@@H](CCCCN)C(=O)N[C@@H](Cc1ccccc1)C(=O)N[C@@H](CCCCN)C(=O)N[C@@H](Cc1c[nH]c2ccccc12)C(=O)N[C@@H](CCCNC(=N)N)C(=O)N[C@@H](Cc1ccc(O)cc1)C(=O)N[C@@H](CCSC)C(=O)N[C@H](C(=O)N[C@H](CCSC)C(N)=O)C(C)C [Peptide V6, Oct-KFKWRYMVm-NH2] (Octanoyl-KFKWRYMV[dM]-NH2)
- EC50 (FPR2): 0.0042 µM
- Antimicrobial activity (IC50, μg/ml) S. aureus (S. aureus): >50 µg/mL
